These results are taken from PubChem BioAssay (NCI).

Among the test systems are HCT-116 colon; HS 578T breast; SF-295 CNS; K-562 leukemia; DU-145 prostate; SF-268 CNS; OVCAR-8 ovarian; OVCAR-3 ovarian; SNB-19 CNS; HOP-92 NSCLC.
What all share (assay): growth of human tumour cells (NCI), 48 h

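Five concentrations, 48 hours, 96-well plates. At the GI50, growth is halved. The concentration for full growth arrest is given as TGI.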

For `C=C1C(=O)O[C@H]2[C@H]1CC/C(COC(=O)C(=O)c1cn(C)c3ccc(OC)cc13)=C\CC[C@@]1(C)O[C@@H]21`, the GI50 in the experiment with HCT-116 colon was 3.61 µM; in the experiment with HS 578T breast it was 11.3 µM; in the experiment on SF-295 CNS it was 9.35 µM; in the experiment with K-562 leukemia it was 5.97 µM; in the experiment with DU-145 prostate, 6.67 µM; with SF-268 CNS, 5.71 µM. The GI50 is 6.76 µM with OVCAR-8 ovarian, 1.86 µM in the experiment on OVCAR-3 ovarian, 9.07 µM in the experiment with SNB-19 CNS and 1.27 µM with HOP-92 NSCLC. Also, the TGI in the experiment on HCT-116 colon was 7.38 µM; in the experiment with HS 578T breast, 50.4 µM; with SF-295 CNS, 21.8 µM; in the experiment on K-562 leukemia, over 61.3 µM; with DU-145 prostate it was 15.5 µM; with SF-268 CNS, 12.5 µM. Also, the TGI is 20.4 µM in the experiment with OVCAR-8 ovarian, 3.42 µM with OVCAR-3 ovarian, 21.8 µM with SNB-19 CNS and 3.17 µM with HOP-92 NSCLC.

Take `NCC(=O)CCC(=O)O`: the GI50 in the experiment with HCT-116 colon, in the experiment on HS 578T breast, in the experiment with SF-295 CNS, with K-562 leukemia, in the experiment with DU-145 prostate and with SF-268 CNS was over 100 µM each time. The GI50 in the experiment on OVCAR-8 ovarian, in the experiment on OVCAR-3 ovarian, in the experiment with SNB-19 CNS and in the experiment on HOP-92 NSCLC was over 100 µM in each case. The TGI in the experiment with HCT-116 colon, with HS 578T breast, with SF-295 CNS, in the experiment on K-562 leukemia, with DU-145 prostate and in the experiment on SF-268 CNS was over 100 µM in each case. The TGI with OVCAR-8 ovarian, in the experiment on OVCAR-3 ovarian, in the experiment on SNB-19 CNS and with HOP-92 NSCLC was over 100 µM each time.

In the case of `C=C1CO[C@@H]2C[C@@H]1CCC1(C)OC1CC/C(C)=C/CC[C@@]2(C)O` (stereo not given in full), the GI50 with HCT-116 colon is 15.7 µM; in the experiment with HS 578T breast, 27.1 µM; in the experiment on SF-295 CNS it was 18.4 µM; in the experiment with K-562 leukemia it was 0.302 µM; in the experiment on DU-145 prostate it was 16.1 µM; in the experiment with SF-268 CNS it was 48.6 µM. Also, the GI50 in the experiment on OVCAR-8 ovarian was 39.8 µM; with OVCAR-3 ovarian it was 16.9 µM; in the experiment with SNB-19 CNS, over 85.9 µM; in the experiment with HOP-92 NSCLC, 36.4 µM. Besides, the TGI is 31.2 µM with HCT-116 colon; over 79.8 µM in the experiment with HS 578T breast; 44.7 µM in the experiment with SF-295 CNS; 7.02 µM in the experiment on K-562 leukemia; 31.2 µM with DU-145 prostate; over 100 µM in the experiment with SF-268 CNS. Further, the TGI was over 100 µM in the experiment on OVCAR-8 ovarian, 33 µM in the experiment on OVCAR-3 ovarian, over 100 µM in the experiment on SNB-19 CNS and over 100 µM with HOP-92 NSCLC.

Regarding `COc1cccc(C2C(C#N)=C(N)Oc3cc(OC)ccc32)c1` (stereo not given), the GI50 in the experiment on HCT-116 colon is 0.0479 µM; in the experiment with HS 578T breast, 0.0279 µM; in the experiment with SF-295 CNS it was 0.0286 µM; with K-562 leukemia it was 0.0203 µM; in the experiment with DU-145 prostate, 0.0347 µM; with SF-268 CNS, 0.0762 µM. The GI50 was 0.048 µM with OVCAR-8 ovarian, 0.0244 µM in the experiment with OVCAR-3 ovarian, 0.517 µM with SNB-19 CNS and 0.0822 µM with HOP-92 NSCLC. The TGI in the experiment on HCT-116 colon is 12.4 µM; with HS 578T breast, 10.3 µM; in the experiment on SF-295 CNS, 33.9 µM; in the experiment with K-562 leukemia, over 100 µM; in the experiment with DU-145 prostate it was 1.55 µM; in the experiment with SF-268 CNS it was over 82.3 µM. Also, the TGI with OVCAR-8 ovarian was over 100 µM; with OVCAR-3 ovarian, 1.18 µM; in the experiment with SNB-19 CNS, over 89.6 µM; in the experiment with HOP-92 NSCLC, 25.2 µM.

For the compound `CC(C)(CCC(C)(C)c1ccccc1)c1ccccc1`, the TGI with HCT-116 colon came out at 29.4 µM; in the experiment on HS 578T breast it was 53.4 µM; with SF-295 CNS it was 31.6 µM; in the experiment on K-562 leukemia it was 61.2 µM; in the experiment with DU-145 prostate, 38.5 µM; in the experiment with SF-268 CNS, 33.3 µM. For the same compound, the TGI in the experiment with OVCAR-8 ovarian stood at 75.9 µM; in the experiment on OVCAR-3 ovarian it was 31 µM; in the experiment with SNB-19 CNS, 33.7 µM; in the experiment on HOP-92 NSCLC it was 37.9 µM.

As for `CC1(C)CC[C@]2(C(=O)O)CC[C@]3(C)[C@H](CC[C@@H]4[C@@]5(C)CCC(=O)C(C)(C)[C@@H]5CC[C@]43C)[C@H]2[C@H]1OC(=O)C(F)(F)F`, the GI50 in the experiment on HCT-116 colon is 4.8 µM; in the experiment with HS 578T breast, 20.3 µM; in the experiment on SF-295 CNS, 14.6 µM; with K-562 leukemia it was 3.61 µM; in the experiment with DU-145 prostate it was 14.1 µM; in the experiment on SF-268 CNS, 15.3 µM. Further, the GI50 in the experiment with OVCAR-8 ovarian is 12.9 µM; in the experiment on OVCAR-3 ovarian, 12.4 µM; with SNB-19 CNS, 13.8 µM; in the experiment with HOP-92 NSCLC it was 8.08 µM. The TGI in the experiment on HCT-116 colon amounted to 17.8 µM; with HS 578T breast, 83.5 µM; in the experiment on SF-295 CNS, 30.1 µM; in the experiment with K-562 leukemia, 20.9 µM; with DU-145 prostate, 34 µM; in the experiment on SF-268 CNS, 33.6 µM. In addition, the TGI in the experiment with OVCAR-8 ovarian is 30.1 µM; in the experiment on OVCAR-3 ovarian, 26.4 µM; in the experiment on SNB-19 CNS, 27.9 µM; with HOP-92 NSCLC it was 22.6 µM.

Consider `C#CC#CC#CC#CC#CC#CC#CC#CCC1OC[C@H](COC(=O)O[C@@H](C(=O)O[C@H]2C[C@@]3(O)[C@@H](OC(=O)c4ccccc4)[C@@H]4[C@]5(OC(C)=O)CO[C@@H]5C[C@H](O)[C@@]4(C)C(=O)[C@H](OC(C)=O)C(=C2C)C3(C)C)[C@@H](NC(=O)c2ccccc2)c2ccccc2)O1` (stereo not given in full), for which the GI50 in the experiment on HCT-116 colon was 0.145 µM; in the experiment with HS 578T breast, 0.297 µM; in the experiment with SF-295 CNS, 1.01 µM; in the experiment with K-562 leukemia, 0.255 µM; with DU-145 prostate it was 0.228 µM; with SF-268 CNS it was 0.992 µM. Further, the GI50 in the experiment with OVCAR-8 ovarian was 0.561 µM; in the experiment with OVCAR-3 ovarian, 0.17 µM; in the experiment with SNB-19 CNS, 1.14 µM; in the experiment with HOP-92 NSCLC, over 18.5 µM. Moreover, the TGI was over 33.3 µM in the experiment on HCT-116 colon; over 17.3 µM in the experiment with HS 578T breast; over 27.5 µM with SF-295 CNS; over 33.3 µM in the experiment on K-562 leukemia; over 33.3 µM with DU-145 prostate; over 33.3 µM in the experiment on SF-268 CNS. Moreover, the TGI in the experiment with OVCAR-8 ovarian, in the experiment on OVCAR-3 ovarian, in the experiment with SNB-19 CNS and in the experiment on HOP-92 NSCLC was over 33.3 µM in each case.
